Measured values as given in US10624947B2, “Bactericidal peptides and uses thereof” (INDIANA UNIVERSITY RESEARCH AND TECHNOLOGY CORPORATION, priority 2016, dated 2020).
Converted amounts (≈) assume the structure as drawn. “Also recorded” adds a separate entry of the source. Where two headings read alike, the source gives them in different places. Blank lines part the entries; values can stand above or below the molecule they belong to. Square brackets hold non-standard residues; d marks the D form. Peptide text beside a SMILES is read from it. AEEA = NCCOCCOCC(=O)O

Key:
[1] = Toxicity of peptides injected intraperitoneally; assay type: in vivo, mice; conditions: intraperitoneal, 10 or 20 μM
Procedure: FIGS. 23A, B show the efficacy and toxicity of modified peptides in mice. […] The survival of mice injected intraperitoneally with iron dextran at 48 h after intraperitoneal injection of 10 or 20 μM of the modified peptides. […] Vibrio vulnificus (V. v.) strain CMCP6 was injected at 1×10^6 CFU. […] All mice receive iron dextran by intraperitoneal injection. Where indicated, 1 h later 10^6 bacterial CFU in 100 μL was injected into the peritoneum (opposite side). 1 h later, 100 μL of the peptide at the indicated concentration was administered on the same side as the bacterial injection.
Since B22a was effective in preventing infection of V. vulnificus in a surgical incision model, we tested it for efficacy for systemic infection in a mouse septicemia model (1). Groups of mice (strain CD-1) were first injected with […], followed 1 h later with an intraperitoneal injection of 1×10e6 colony forming units of V. vulnificus strain […]. The B22a was then injected intraperitoneally 1 h later and morbidity was monitored hourly for two days.
PB22N and other modified peptides were tested in a septicemic mouse model. V. vulnificus is a highly-pathogenic bacterium, causing septicemia and high mortality. In mice injected intraperitoneally with V. vulnificus, the majority of the mice had to be euthanized within 24 h due to severe symptoms associated with septicemia (FIG. 23B). […] PB22N was effective in preventing mice from succumbing to systemic infection by the highly virulent V. vulnificus.

[2] = tested on: Klebsiella pneumoniae; assay: microbe, parasite or virus in culture
[3] = tested on: Escherichia coli
[4] = tested on: human red blood cells (hRBCs); assay: Hemolytic activity; assay type: cell-based
[5] = tested on: Pseudomonas aeruginosa; assay type: cell-based
[6] = tested on: Klebsiella pneumoniae
[7] = tested on: Enterobacter cloacae
[8] = tested on: Cultured human cells; assay: MTT cytotoxicity assay; assay type: cell-based; conditions: cultured human cells, compared to controls
[9] = tested on: Serratia marcescens
[10] = Table 8, clinical isolate 88 (NDM1+)
[11] = Table 8, clinical isolate 262 (NDM1+)
[12] = Table 11, clinical isolate 88 (NDM1+)
[13] = Table 11, clinical isolate 262 (NDM1+)
[14] = Table 11, clinical isolate 110113

Structure (SMILES): CC[C@H](C)[C@H](NC(=O)[C@@H](NC(=O)[C@@H]1CCCN1C(=O)[C@H](CO)NC(=O)[C@H](CC(C)C)NC(=O)[C@H](CCCCN)NC(=O)[C@H](CCCCN)NC(=O)[C@H](Cc1ccccc1)NC(=O)[C@H](CC(C)C)NC(=O)[C@H](CCCCN)NC(=O)[C@H](CCCCN)NC(=O)[C@H](CC(C)C)NC(=O)[C@H](CCCCN)NC(=O)[C@H](CCCCN)NC(=O)[C@H](CCCNC(=N)N)NC(=O)[C@H](Cc1ccccc1)NC(C)=O)C(C)C)C(=O)N1CCC[C@H]1C(=O)N[C@@H](CC(C)C)C(=O)N[C@@H](CC(C)C)C(=O)N[C@@H](CCCCN)C(=O)N[C@@H](CC(C)C)C(=O)NCC(=O)NCCOCCOCC(=O)O [AB22P] (Ac-FRKKLKKLFKKLSPVIPLLKLG[AEEA]-OH)
Toxicity signs in mice injected with peptide [1]: no obvious symptoms were observed; also recorded: no obvious effects on mice behavior or appearance

MIC [2, 10]: 16 µg/mL (≈ 53.4 µM)
MIC ([2]; Table 8, clinical isolate 92): > 64 µg/mL
MIC ([2]; Table 8, clinical isolate 109): 16 µg/mL (≈ 53.4 µM)
MIC ([2]; Table 8, clinical isolate 113): 16 µg/mL (≈ 53.4 µM)
MIC ([2]; Table 8, clinical isolate 116): 8 µg/mL (≈ 26.7 µM)
MIC ([2]; Table 8, clinical isolate 118): 32 µg/mL (≈ 107 µM)
MIC ([2]; Table 8, clinical isolate 136): 8 µg/mL (≈ 26.7 µM)
MIC ([2]; Table 8, clinical isolate 256): ≥ 16 µg/mL
MIC [2, 11]: > 16 µg/mL
MIC ([2]; Table 8, clinical isolate 265): 48 µg/mL (≈ 160 µM)
MIC ([2]; Table 8, clinical isolate 280): ≥ 16 µg/mL
MIC ([2]; Table 8, clinical isolate 281): 4 µg/mL (≈ 13.4 µM)
MIC ([2]; Table 8, clinical isolate 284): 8 µg/mL (≈ 26.7 µM)
MIC ([2]; Table 8, clinical isolate 286): ≥ 16 µg/mL
MIC ([2]; Table 8, clinical isolate 330): 4 µg/mL (≈ 13.4 µM)
MIC ([2]; Table 8, clinical isolate 361): > 16 µg/mL
MIC [2, 12]: 16 µg/mL (≈ 53.4 µM)
MIC ([2]; Table 11, clinical isolate 92): > 64 µg/mL
MIC ([2]; Table 11, clinical isolate 116): 8 µg/mL (≈ 26.7 µM)
MIC ([2]; Table 11, clinical isolate 118): 32 µg/mL (≈ 107 µM)
MIC ([2]; Table 11, clinical isolate 136): 8 µg/mL (≈ 26.7 µM)
MIC ([2]; Table 11, clinical isolate 256): ≥ 16 µg/mL
MIC [2, 13]: > 16 µg/mL
MIC ([2]; Table 11, clinical isolate 265): 48 µg/mL (≈ 160 µM)
MIC ([2]; Table 11, clinical isolate 280): ≥ 16 µg/mL
MIC ([2]; Table 11, clinical isolate 281): 4 µg/mL (≈ 13.4 µM)
MIC ([2]; Table 11, clinical isolate 284): 8 µg/mL (≈ 26.7 µM)
MIC ([2]; Table 11, clinical isolate 286): ≥ 16 µg/mL
MIC ([2]; Table 11, clinical isolate 330): 4 µg/mL (≈ 13.4 µM)
MIC ([2]; Table 11, clinical isolate 361): > 16 µg/mL
MIC ([2]; Table 11, clinical isolate 10916): > 16 µg/mL
MIC [2, 14]: 16 µg/mL (≈ 53.4 µM)
Structure (SMILES): C[C@@H](O)[C@H]1C(=O)N2C(C(=O)O)=C(SCCN=CN)C[C@H]12 [Imipenem]

Structure (SMILES): CC[C@H](C)[C@H](NC(=O)[C@H](CCCCN)NC(=O)[C@H](CCC(=O)O)NC(=O)[C@H](CCCCN)NC(=O)[C@H](CO)NC(=O)[C@H](CCCCN)NC(=O)[C@H](CCCNC(=N)N)NC(=O)[C@H](Cc1ccccc1)NC(=O)[C@H](Cc1ccccc1)NC(=O)[C@H](CC(=O)O)NC(=O)CNC(=O)[C@H](CC(C)C)NC(=O)[C@@H](N)CC(C)C)C(=O)NCC(=O)N[C@@H](CCCCN)C(=O)N[C@@H](CCC(=O)O)C(=O)N[C@@H](Cc1ccccc1)C(=O)N[C@@H](CCCCN)C(=O)N[C@@H](CCCNC(=N)N)C(=O)N[C@H](C(=O)N[C@H](C(=O)N[C@@H](CCC(N)=O)C(=O)N[C@@H](CCCNC(=N)N)C(=O)N[C@H](C(=O)N[C@@H](CCCCN)C(=O)N[C@@H](CC(=O)O)C(=O)N[C@@H](Cc1ccccc1)C(=O)N[C@@H](CC(C)C)C(=O)N[C@@H](CCCNC(=N)N)C(=O)N[C@@H](CC(N)=O)C(=O)N[C@@H](CC(C)C)C(=O)N[C@H](C(=O)N1CCC[C@H]1C(=O)N[C@@H](CCCNC(=N)N)C(=O)N[C@H](C(=O)N[C@@H](CCC(=O)O)C(=O)N[C@@H](CO)C(=O)O)[C@@H](C)O)C(C)C)[C@@H](C)CC)C(C)C)[C@@H](C)CC [LL-37, reference compound]
Minimal inhibitory concentration ([3]; E. coli 4075): >32 µg/mL
Minimal inhibitory concentration ([3]; E. coli J53 AzideR): >32 µg/mL
Minimal inhibitory concentration ([3]; E. coli MC4100): >32 µg/mL
Minimal inhibitory concentration ([3]; Table 10, Escherichia coli ATCC 25922): 32 µM
Minimal inhibitory concentration ([3]; Table 10, Escherichia coli ATCC 35218): 32 µM
Minimal inhibitory concentration ([3]; Table 10, Escherichia coli IU342): 32 µM
Minimal inhibitory concentration ([3]; Table 10, Escherichia coli J53 AzideR): >32 µM
Minimal inhibitory concentration ([3]; Table 10, Escherichia coli MC4100a): >32 µM
Minimal inhibitory concentration ([3]; Table 10, Escherichia coli OC4075): >32 µM
Minimal inhibitory concentration ([3]; Table 10, Escherichia coli UT189): >32 µM
Hemoglobin release from hRBCs ([4]; 2 micromolar, 45-minute incubation (FIG. 17)): a low abundance of hemoglobin outside of the cells was detected
hRBC lysis ([4]; 2 to 8 μM (FIG. 15)): lysed hRBC when present at 4 or 8 μM
hRBC lysis with increasing concentration ([4]; LL-37 beyond 10 micromolar, B22a up to 60 micromolar (FIG. 18)): significantly higher hRBC lysis
Minimal inhibitory concentration ([5]; P. aeruginosa ATCC 27853): >32 µg/mL
Minimal inhibitory concentration ([5]; Table 10, Pseudomonas aeruginosa ATCC 27853): >32 µM
Minimal inhibitory concentration ([5]; Table 10, Pseudomonas aeruginosa OC4083): >32 µM
Minimal inhibitory concentration ([5]; Table 10, Pseudomonas aeruginosa PAO1): 32 µM
Minimal inhibitory concentration ([5]; Table 10, Pseudomonas aeruginosa PAO1 oprD): 32 µM
Minimal inhibitory concentration ([6]; K. pneumoniae 4110): >32 µg/mL
Minimal inhibitory concentration ([6]; K. pneumoniae ATCC 700603): >32 µg/mL
Minimal inhibitory concentration ([6]; K. pneumoniae C2): >32 µg/mL
Minimal inhibitory concentration ([6]; K. pneumoniae OC8893): >32 µg/mL
Minimal inhibitory concentration ([6]; Table 10, Klebsiella pneumonia ATCC 700603): >32 µM
Minimal inhibitory concentration ([6]; Table 10, Klebsiella pneumonia C2): >32 µM
Minimal inhibitory concentration ([6]; Table 10, Klebsiella pneumonia OC4110): >32 µM
Minimal inhibitory concentration ([6]; Table 10, Klebsiella pneumonia OC8893): >32 µM
Minimal inhibitory concentration ([7]; E. cloacae 4092): >32 µg/mL
Minimal inhibitory concentration ([7]; Table 10, Enterobacter cloacae OC4080): 32 µM
Minimal inhibitory concentration ([7]; Table 10, Enterobacter cloacae OC4092): >32 µM
Cytotoxicity, MTT assay [8]: no increased cytotoxicity compared to the controls
Minimal inhibitory concentration ([9]; S. marcescens 4101): >32 µg/mL
Minimal inhibitory concentration ([9]; S. marcescens 4104): >32 µg/mL
Minimal inhibitory concentration ([9]; S. marcescens 7553): >32 µg/mL
Minimal inhibitory concentration ([9]; Table 10, Serratia marcescens 4075A): >32 µM
Minimal inhibitory concentration ([9]; Table 10, Serratia marcescens 4101): >32 µM
Minimal inhibitory concentration ([9]; Table 10, Serratia marcescens 4104): >32 µM

MIC [2, 10]: > 16 µg/mL
MIC ([2]; Table 8, clinical isolate 92): > 16 µg/mL
MIC ([2]; Table 8, clinical isolate 109): > 16 µg/mL
MIC ([2]; Table 8, clinical isolate 113): > 16 µg/mL
MIC ([2]; Table 8, clinical isolate 116): > 16 µg/mL
MIC ([2]; Table 8, clinical isolate 118): > 16 µg/mL
MIC ([2]; Table 8, clinical isolate 136): > 16 µg/mL
MIC ([2]; Table 8, clinical isolate 170): > 32 µg/mL
MIC ([2]; Table 8, clinical isolate 256): 4 µg/mL (≈ 10.4 µM)
MIC [2, 11]: > 6 µg/mL
MIC ([2]; Table 8, clinical isolate 265): > 64 µg/mL
MIC ([2]; Table 8, clinical isolate 280): > 64 µg/mL
MIC ([2]; Table 8, clinical isolate 281): > 64 µg/mL
MIC ([2]; Table 8, clinical isolate 284): > 64 µg/mL
MIC ([2]; Table 8, clinical isolate 286): > 64 µg/mL
MIC ([2]; Table 8, clinical isolate 328): > 16 µg/mL
MIC ([2]; Table 8, clinical isolate 330): > 16 µg/mL
MIC ([2]; Table 8, clinical isolate 361): > 16 µg/mL
MIC ([2]; Table 8, clinical isolate 365): > 16 µg/mL
MIC ([2]; Table 8, clinical isolate 399): > 16 µg/mL
MIC [2, 12]: > 16 µg/mL
MIC ([2]; Table 11, clinical isolate 92): > 16 µg/mL
MIC ([2]; Table 11, clinical isolate 116): > 16 µg/mL
MIC ([2]; Table 11, clinical isolate 118): > 16 µg/mL
MIC ([2]; Table 11, clinical isolate 136): > 16 µg/mL
MIC ([2]; Table 11, clinical isolate 170): > 32 µg/mL
MIC ([2]; Table 11, clinical isolate 256): 4 µg/mL (≈ 10.4 µM)
MIC [2, 13]: ≥ 64 µg/mL
MIC ([2]; Table 11, clinical isolate 265): ≥ 64 µg/mL
MIC ([2]; Table 11, clinical isolate 280): ≥ 64 µg/mL
MIC ([2]; Table 11, clinical isolate 281): > 64 µg/mL
MIC ([2]; Table 11, clinical isolate 284): ≥ 64 µg/mL
MIC ([2]; Table 11, clinical isolate 286): ≥ 64 µg/mL
MIC ([2]; Table 11, clinical isolate 328): ≥ 16 µg/mL
MIC ([2]; Table 11, clinical isolate 330): ≥ 16 µg/mL
MIC ([2]; Table 11, clinical isolate 361): ≥ 16 µg/mL
MIC ([2]; Table 11, clinical isolate 365): ≥ 16 µg/mL
MIC ([2]; Table 11, clinical isolate 399): ≥ 16 µg/mL
MIC [2, 14]: > 16 µg/mL
Structure (SMILES): C[C@@H](O)[C@H]1C(=O)N2C(C(=O)O)=C(S[C@@H]3CN[C@H](C(=O)N(C)C)C3)[C@H](C)[C@H]12 [Meropenem]
